The record followed here is US20180000085A1, “USE OF PICOLINAMIDE COMPOUNDS WITH FUNGICIDAL ACTIVITY” (DOW AGROSCIENCES LLC, priority 2014, published 2018).

Test [1] relates to Puccinia triticina. The test is described as follows: Wheat brown rust (PUCCRT) disease control on wheat seedlings. The class given is in vivo. The settings on record: for PUCCRT 1DP, LV activity at 125.1 g/H (% Control rating) / LV activity at 125.1 g/H PUCCRT 1DP (disease control rating) / PUCCRT 1DP disease control rating, HV activity: 1 Day Protectant; for PUCCRT 3DC, LV activity at 125.1 g/H (% Control rating) / LV activity at 125.1 g/H PUCCRT 3DC (disease control rating) / PUCCRT 3DC disease control rating, HV activity: 3 Day Curative; for PUCCRT 1DP disease control rating, HV activity at 100 ppm / PUCCRT 3DC disease control rating, HV activity at 100 ppm: high volume application; for LV activity at 125.1 g/H PUCCRT 1DP (disease control rating) / LV activity at 125.1 g/H PUCCRT 3DC (disease control rating) / PUCCRT 1DP disease control rating, HV activity / PUCCRT 3DC disease control rating, HV activity: wheat brown rust; for PUCCRT 1DP disease control rating, HV activity / PUCCRT 3DC disease control rating, HV activity: HV application at 100 ppm.

Test [2] concerns Zymoseptoria tritici. Kind of test: Leaf blotch of wheat (SEPTTR) disease control on wheat seedlings. The class given is in vivo. More on the design: key to SEPTTR 1DP, HV activity at 100 ppm (% control rating) / SEPTTR 3DC, HV activity at 100 ppm (% control rating) / SEPTTR disease control, 1DP / SEPTTR disease control, 3DC / SEPTTR 1DP disease control rating, HV activity / SEPTTR 3DC disease control rating, HV activity / SEPTTR 3DC, LV activity at 125.1 g/H (% Control rating) / SEPTTR 1DP, LV activity at 125.1 g/H (% Control rating) / SEPTTR 1DP disease control rating, LV activity at 125.1 g/H / SEPTTR 3DC disease control rating, LV activity at 125.1 g/H / SEPTTR 3DC disease control rating, HV activity at 100 ppm / SEPTTR 1DP disease control rating, HV activity at 100 ppm / HV activity at 100 ppm SEPTTR 3DC (disease control rating) / HV activity at 100 ppm SEPTTR 1DP (disease control rating) / LV activity at 125.1 g/H SEPTTR 1DP (disease control rating) / LV activity at 125.1 g/H SEPTTR 3DC (disease control rating): A: > 80; B: ≤ 80; C: Not Tested; D: No Activity Observed in the Reported Assay. The note with it: for SEPTTR 1DP, LV activity at 125.1 g/H (% Control rating) / LV activity at 125.1 g/H SEPTTR 1DP (disease control rating) / SEPTTR 1DP disease control rating, HV activity: 1 Day Protectant; for SEPTTR 3DC, LV activity at 125.1 g/H (% Control rating) / LV activity at 125.1 g/H SEPTTR 3DC (disease control rating) / SEPTTR 3DC disease control rating, HV activity: 3 Day Curative; for SEPTTR 1DP disease control rating, HV activity at 100 ppm / SEPTTR 3DC disease control rating, HV activity at 100 ppm: high volume application; for LV activity at 125.1 g/H SEPTTR 1DP (disease control rating) / LV activity at 125.1 g/H SEPTTR 3DC (disease control rating) / SEPTTR 1DP disease control rating, HV activity / SEPTTR 3DC disease control rating, HV activity: wheat leaf blotch; for SEPTTR 1DP disease control rating, HV activity / SEPTTR 3DC disease control rating, HV activity: HV application at 100 ppm.

Setting [3] is: low volume application, 125.1 g/H, 1 day protectant.
Setting [4] is: low volume application, 125.1 g/H, 3 day curative.
Setting [5] is: low volume application, 125.1 g/H.

With `COc1ccnc(C(=O)NC(C)C(=O)OC(C)C(Oc2ccccc2)C2CCCCC2)c1OCOC(C)=O` (stereo not shown) [Cmpd 907], the “PUCCRT 1DP disease control rating, LV activity at 125.1 g/H” value in test [1] (setting [3]) is “A (> 80)”. In addition, the “PUCCRT 3DC disease control rating, LV activity at 125.1 g/H” value in test [1] (setting [4]) is recorded as “B (≤ 80)”. In addition, in test [2] (setting [3]), the “SEPTTR 1DP disease control rating, LV activity at 125.1 g/H” value is on record as “B (≤ 80)”. Also, the “SEPTTR 3DC disease control rating, LV activity at 125.1 g/H” value in test [2] (setting [4]) is “B (≤ 80)”.

In the case of `CCC(CC)[C@@H](Oc1cc(F)ccc1F)[C@H](C)OC(=O)[C@H](C)NC(=O)c1nccc(OC)c1OCOC(C)=O` [Cmpd 591], in test [1] (setting [5]), the “PUCCRT 1DP, LV activity at 125.1 g/H (% Control rating)” value is reported as “A (> 80)” and the “PUCCRT 3DC, LV activity at 125.1 g/H (% Control rating)” value is given as “A (> 80)”. For the same compound, in test [2] (setting [5]), the “SEPTTR 1DP, LV activity at 125.1 g/H (% Control rating)” value is listed as “B (≤ 80)” and the “SEPTTR 3DC, LV activity at 125.1 g/H (% Control rating)” value is “A (> 80)”.

Regarding `COc1ccnc(C(=O)NC(C)C(=O)OC(C)C(OCC(C)C)c2ccccc2)c1O` (stereo not shown) [Cmpd 820], the “PUCCRT 1DP disease control rating, HV activity at 100 ppm” value in test [1] (1 day protectant) was “A (> 80)”. Besides, in test [1] (3 day curative), the “PUCCRT 3DC disease control rating, HV activity at 100 ppm” value is recorded as “A (> 80)”. For the same compound, the “SEPTTR 1DP disease control rating, HV activity at 100 ppm” value in test [2] (1 day protectant) is listed as “A (> 80)”. Besides, the “SEPTTR 3DC disease control rating, HV activity at 100 ppm” value in test [2] (3 day curative) is given as “A (> 80)”.

In the case of `COc1ccnc(C(=O)N[C@@H](C)C(=O)O[C@@H](C)[C@H](Oc2ccc(C)cc2Cl)C(C)(C)C)c1OC(C)=O` [Cmpd 1067], in test [1] (setting [5]), the “LV activity at 125.1 g/H PUCCRT 1DP (disease control rating)” value is “A (> 80)” and the “LV activity at 125.1 g/H PUCCRT 3DC (disease control rating)” value is listed as “B (≤ 80)”. For the same compound, in test [2] (setting [5]), the “LV activity at 125.1 g/H SEPTTR 1DP (disease control rating)” value is listed as “D” and the “LV activity at 125.1 g/H SEPTTR 3DC (disease control rating)” value is reported as “B (≤ 80)”.

On to `COc1ccnc(C(=O)N[C@@H](C)C(=O)O[C@@H](C)[C@H](Oc2cccc(Cl)c2)C2CCCC2)c1O` [Cmpd 841, (S)-(1R,2S)-1-(3-chlorophenoxy)-1-cyclopentylpropan-2-yl-2-(3-hydroxy-4-methoxypicolinamido)propanoate], for which, in test [1] (1 day protectant), the “PUCCRT 1DP disease control rating, HV activity at 100 ppm” value was “A (> 80)”. In addition, the “PUCCRT 3DC disease control rating, HV activity at 100 ppm” value in test [1] (3 day curative) is recorded as “A (> 80)”. Further, the “SEPTTR 1DP disease control rating, HV activity at 100 ppm” value in test [2] (1 day protectant) is on record as “A (> 80)”. Moreover, the “SEPTTR 3DC disease control rating, HV activity at 100 ppm” value in test [2] (3 day curative) is given as “A (> 80)”.

As for `CCC(Cc1ccccc1)C(OCC(C)C)C(C)OC(=O)CNC(=O)c1nccc(OC)c1OCOC(C)=O` (stereo not shown) [Cmpd 445], in test [1], the “PUCCRT 1DP disease control rating, HV activity” value is reported as “A (> 80)” and the “PUCCRT 3DC disease control rating, HV activity” value is recorded as “A (> 80)”. Also, in test [2], the “SEPTTR 1DP disease control rating, HV activity” value is given as “B (≤ 80)” and the “SEPTTR 3DC disease control rating, HV activity” value is recorded as “D”.

For `COc1ccnc(C(=O)NC(C)C(=O)OC(C)C(Oc2cc(F)cc(Cl)c2)C(C)C)c1O` (stereo not shown) [Cmpd 393], in test [1], the “PUCCRT 1DP disease control rating, HV activity” value is reported as “A (> 80)” and the “PUCCRT 3DC disease control rating, HV activity” value is given as “B (≤ 80)”. Besides, in test [2], the “SEPTTR 1DP disease control rating, HV activity” value is on record as “B (≤ 80)” and the “SEPTTR 3DC disease control rating, HV activity” value was “A (> 80)”.

Regarding `CCC(CC)[C@@H](Oc1ccc(-c2ccccc2)cc1)[C@H](C)OC(=O)[C@@H](NC(=O)c1nccc(OC)c1OCOC(C)=O)C(C)C` [Cmpd 655], in test [1] (setting [5]), the “PUCCRT 1DP, LV activity at 125.1 g/H (% Control rating)” value is “A (> 80)” and the “PUCCRT 3DC, LV activity at 125.1 g/H (% Control rating)” value is given as “B (≤ 80)”. In addition, in test [2] (setting [5]), the “SEPTTR 1DP, LV activity at 125.1 g/H (% Control rating)” value is given as “A (> 80)” and the “SEPTTR 3DC, LV activity at 125.1 g/H (% Control rating)” value is “B (≤ 80)”.

On to `C=CC[C@@H](Oc1ccc(C(F)(F)F)cc1)[C@H](C)OC(=O)[C@H](C)NC(=O)c1nccc(OC)c1O` [Cmpd 1020], for which, in test [1] (1 day protectant), the “PUCCRT 1DP disease control rating, HV activity at 100 ppm” value is listed as “A (> 80)”. Besides, the “PUCCRT 3DC disease control rating, HV activity at 100 ppm” value in test [1] (3 day curative) is recorded as “A (> 80)”. Also, the “SEPTTR 1DP disease control rating, HV activity at 100 ppm” value in test [2] (1 day protectant) is on record as “B (≤ 80)”. The “SEPTTR 3DC disease control rating, HV activity at 100 ppm” value in test [2] (3 day curative) is on record as “B (≤ 80)”.

`COc1ccnc(C(=O)N[C@@H](C)C(=O)O[C@@H](C)[C@H](Oc2ccccc2)C2CC2)c1OC(C)=O` [Cmpd 1064]: in test [1] (setting [5]), the “LV activity at 125.1 g/H PUCCRT 1DP (disease control rating)” value was “A (> 80)” and the “LV activity at 125.1 g/H PUCCRT 3DC (disease control rating)” value is reported as “A (> 80)”. In test [2] (setting [5]), the “LV activity at 125.1 g/H SEPTTR 1DP (disease control rating)” value was “B (≤ 80)” and the “LV activity at 125.1 g/H SEPTTR 3DC (disease control rating)” value is recorded as “A (> 80)”.
